From patent US10266568B2, “Cyclic citrullinated peptide, rheumatoid arthritis diagnosis composition including the same, rheumatoid arthritis diagnosis method using the peptide or the composition, and method of screening diagnostic marker for rheumatoid arthritis” (KOREA INSTITUTE OF SCIENCE AND TECHNOLOGY, priority 2015, dated 2019)
Positions of bridges follow the written chain, without caps; N, C: chain ends. Non-standard residues stand in square brackets, D forms with d. No end group written: not given here. Cit = NC(=O)NCCC[C@H](N)C(=O)O; Ahx = NCCCCCC(=O)O

System: autoimmune antibodies (anti-CCP antibody) in serum samples
Test: Sandwich ELISA of patient serum samples on peptide-coated microplates (absorbance at 450 nm)
Format: binding, human
Settings: diluted 200 times; for Average (absorbance) Normal: normal control group serum samples (25 subjects); for Average (absorbance) SLE: SLE patient serum samples (25 subjects); for Average (absorbance) OA: OA patient serum samples (15 subjects); for Average (absorbance) RA: RA patient serum samples (30 subjects), peptide coated at about 10 μg/ml
Experimental: Sandwich enzyme linked immunosorbent assay (ELISA) using the peptides of Table 1 were performed on the samples from 4 test groups. Serum samples of RA patients (30 subjects), OA patients (15 subjects), SLE patients (25 subjects), and control group samples (25 normal subjects) were prepared.
Each of the prepared peptides of Table 1 was diluted with PBS to about 10 μg/ml, added by about 100 μl to a microplate, and then coated at about 4° C. overnight, followed by adding about 200 μl of BSA solution (10 mg/mL) to each well of the peptide coated microplate to block at room temperature for about 1 hour, and washing the microplate with a PBS including about 0.1% of Tween-20 three times to use the microplate it in this assay. The patient samples and normal control group sample were diluted by 200 times and added triplet by about 100 μl to the wells of the peptide-coated microplate. After being cultured at room temperature for about 1 hour, the resulting microplate was washed three times in the same manner as the above-described washing. To detect autoimmune antibodies in the samples, 100 μl of an anti-human IgG antibody solution ([…]) was added to each cell of the microplate and incubated at room temperature for about 1 hour, followed by washing three times in the same manner as the above-described washing. After 100 μl of a TMB substrate solution was added thereto and reacted at room temperature for about 30 minutes, finally 100 μl of a 2M sulfuric acid solution was added as a stop solution to terminate the reaction, followed by absorbance measurement at a wavelength of about 450 nm using a microplate reader.
Autoimmune antibody levels in the blood samples of normal patients and various types of arthritis patients were analyzed by enzyme linked immunosorbent assay (ELISA) using the peptides of SEQ ID NOS.
Autoimmune antibody levels in the blood samples of normal patients and various arthritis patients were analyzed by ELISA using the peptides of SEQ ID NOS.

Row | Substance | Average (absorbance) Normal | Average (absorbance) SLE | Average (absorbance) OA | Average (absorbance) RA
1 | CCP10P: HCHQESTXGPSRGCG; CCP with 10th amino acid arginine substituted by proline (HCHQEST[Cit]GPSRGCG; disulfide 2-14) | 0.0994 |  |  | 
2 | CCP11A: HCHQESTXGRARGCG; CCP with 11th amino acid serine substituted by alanine (HCHQEST[Cit]GRARGCG; disulfide 2-14) | 0.1125 | 0.3321 |  | 
3 | CCP12P: HCHQESTXGRSPGCG; CCP with 12th amino acid substituted by proline (HCHQEST[Cit]GRSPGCG; disulfide 2-14) | 0.1250 | 0.3619 | 0.2847 | 
4 | CCP: cyclic citrullinated peptide HCHQESTXGRSRGCG, X citrulline (HCHQEST[Cit]GRSRGCG; disulfide 2-14) [reference compound] | 0.0874 | 0.2347 | 0.2314 | 0.2522
5 | CCPPAP: HCHQESTXGPAPGCG; CCP with 10th, 11th, 12th amino acids substituted by proline, alanine, proline (HCHQEST[Cit]GPAPGCG; disulfide 2-14) | 0.1140 | 0.3287 | 0.2591 | 
6 | HSH15: HSHQESTXGRSRGSG; CCP with disulfide bond-forming cysteine substituted with serine, X citrulline (HSHQEST[Cit]GRSRGSG) | 0.1067 | 0.2704 | 0.2277 | 0.1942
7 | HSH17: HSHQESTXGRSRGSGZZ; aminocaproic acid (Z) added to C-terminal of HSH15 (HSHQEST[Cit]GRSRGSG[Ahx][Ahx]) | 0.1412 |  |  | 
8 | RF: rheumatoid factor peptide EGLHNHY (listed as Homo sapiens) [reference compound] | 0.1484 | 0.3417 | 0.2791 | 0.2534
9 | ZZH17: ZZHSHQESTXGRSRGSG; aminocaproic acid (Z) added to N-terminal of HSH15 ([Ahx][Ahx]HSHQEST[Cit]GRSRGSG) | 0.1102 | 0.2738 |  | 
10 | ZZH19: ZZHSHQESTXGRSRGSGZZ; aminocaproic acid (Z) added to N- and C-terminals of HSH15 ([Ahx][Ahx]HSHQEST[Cit]GRSRGSG[Ahx][Ahx]) | 0.1609 |  |  | 
